In patent publication US20250179077A1, “QUINAZOLINE COMPOUNDS AND USES THEREOF AS INHIBITORS OF MUTANT KRAS PROTEINS” (AMGEN INC., priority 2022, published 2025) one finds IC50 data, which are given here for 23 compounds.

For orientation: pIC50 means the negative decadic logarithm of the IC50, by convention in mol/L. The IC50 is the concentration that gives 50% inhibition. Read a high IC50 as a need for much substance.

Assay [1] addresses His-tagged KRAS G12D protein (Homo sapiens, UniProt P01116, G12D). Put plainly: KRAS G12D TR-FRET Assay. The assay is classed as binding. The method, then: KRAS G12D TR-FRET Assay Compounds of interest were prepared in a dose-response titration in DMSO, and 80 nL were added via Labcyte Echo to each well of a 384-well plate (Perkin Elmer 6008280). The His-tagged KRAS G12D protein (Amgen) was diluted to 20 nM in Assay Buffer (20 mM HEPES, pH 7.4, 10 mM MgCl2, 50 mM NaCl, 0.1% BSA, 0.01% Tween-20, 10 μM GDP) and 2 uL was added to the appropriate wells of the 384-well plate. The plate was incubated for 30 minutes at room temperature. Biotinylated KRPep-2d substrate (Amgen) was diluted to 20 nM in Assay Buffer and 2 μL was added to all wells and incubated for 1 hour at room temperature. Detection Reagent (0.4 nM LANCE Eu-W1024 Anti-6×-His (Perkin Elmer AD0401), 5 nM streptavidin-d2 (Cisbio 610SADLA)) was prepared in Assay Buffer, then 4 μL was added to the plate and incubated for 1 hour at room temperature. Plates were read using PerkinElmer EnVision (ex: 320 nm, em1: 665 nm, em2: 615 nm) and em1/em2 data was used to generate curve fits using a 4-parameter logistic model to calculate IC50 values.
For orientation: TR-FRET usually uses a lanthanide donor and a delayed reading to cut background.

Assay [2] has as its target GDP-bound KRAS protein (aa 1-169), containing both G12D and C118A amino acid substitutions (Homo sapiens, UniProt P01116, C118A/G12D). Put plainly: KRAS G12D Coupled Nucleotide Exchange Assay. The class given is biochemical. The procedure:
KRAS G12D Coupled Nucleotide Exchange Assay
Following compound pre-incubation, purified SOS protein (aa 564-1049) and GTP (Roche 10106399001) were added to the assay wells and incubated for an additional 30 min. […] The assay plates were then read on a PerkinElmer EnVision Multilabel Reader, using AlphaScreen® technology, and data were analyzed using a 4-parameter logistic model to calculate IC50 values.

For assay [3], the system named is Phosphorylation of ERK1/2 in AsPC-1 cells. Description: Phospho-ERK1/2 MSD Assay. The assay is classed as cell-based. The method, then:
AsPC-1 (ATCC® CRL-1682™) cells were cultured in RPMI 1640 Medium (ThermoFisher Scientific 11875093) containing 10% fetal bovine serum (ThermoFisher Scientific 16000044) and Ix penicillin-streptomycin-glutamine (ThermoFisher Scientific 10378016). Sixteen hours prior to compound treatment, AsPC-1 cells were seeded in 96-well cell culture plates at a density of 25,000 cells/well and incubated at 37° C., 5% CO2. A compound dose-response titration was diluted in growth media, added to appropriate wells of a cell culture plate, and then incubated at 37° C., 5% CO2 for 2 h. Following compound treatment, cells were washed with ice-cold Dulbecco's phosphate-buffered saline, no Ca^2+ or Mg^2+ (ThermoFisher Scientific 14190144), and then lysed in RIPA buffer (50 mM Tris-HCl pH 7.5, 1% Igepal, 0.5% sodium deoxycholate, 150 mM NaCl, and 0.5% sodium dodecyl sulfate) containing protease inhibitors (Roche 4693132001) and phosphatase inhibitors (Roche 4906837001). Phosphorylation of ERK1/2 in compound-treated lysates was assayed using Phospho-ERK1/2 Whole Cell Lysate kits (Meso Scale Discovery K151DWD) according to the manufacturer's protocol. Assay plates were read on a Meso Scale Discovery Sector Imager 6000, and data were analyzed using a 4-parameter logistic model to calculate IC50 values.

Where [4] appears, read: Homo sapiens, ASPC1, 2 h, read-out: 2 h p-ERK (AsPC-1 cells), IC50, AsPC-1 cells, 2 h compound treatment.
The mark [5] stands for this setting: read-out: 2 h p-ERK (AsPC-1 cells), IC50, AsPC-1 cells, 2 h compound treatment.

Each structure is given as a SMILES string. pIC50: −log10 of the molar value. Where two headings read alike, the source gives them in different places.

Sequence of His-tagged KRAS G12D protein (P01116 1-188 isoform P01116-2 G12D): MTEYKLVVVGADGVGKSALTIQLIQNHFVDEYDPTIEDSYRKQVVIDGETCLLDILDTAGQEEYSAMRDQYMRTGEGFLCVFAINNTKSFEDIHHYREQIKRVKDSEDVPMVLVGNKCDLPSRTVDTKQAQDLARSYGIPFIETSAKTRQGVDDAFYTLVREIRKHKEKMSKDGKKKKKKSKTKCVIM
Sequence of GDP-bound KRAS protein (aa 1-169), containing both G12D and C118A amino acid substitutions (P01116 1-169 isoform P01116-2 G12D/C118A): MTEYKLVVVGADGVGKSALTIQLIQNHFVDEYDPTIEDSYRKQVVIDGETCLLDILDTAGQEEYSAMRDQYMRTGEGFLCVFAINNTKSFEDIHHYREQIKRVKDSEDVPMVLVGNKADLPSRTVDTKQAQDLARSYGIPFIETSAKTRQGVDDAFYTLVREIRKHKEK

For the compound `CCc1cccc2cc(O)cc(-c3c(F)cc4c(N5CCC[C@]6(CCO6)C5)nc(OC[C@@]56CCCN5C[C@H](F)C6)nc4c3F)c12` [Example 77, 4-(6,8-Difluoro-2-(((2R,7aS)-2-fluorotetrahydro-1H-pyrrolizin-7a(5H)-yl)methoxy)-4-((S)-1-oxa-6-azaspiro[3.5]nonan-6-yl)quinazolin-7-yl)-5-ethylnaphthalen-2-ol], the figures for the pIC50 in assay [1] and in assay [3] (setting [4]) were 8.22 and 7.54, respectively. In addition, the half-maximal inhibitory concentration (IC50) in assay [2] turned out to be 4 nM.

Consider `CCc1c(F)ccc2cc(N)cc(-c3c(F)cc4c(N5CCOCC(C)(O)C5)nc(OC[C@@]56CCCN5C[C@H](F)C6)nc4c3F)c12` (single isomer, unassigned) [Example 71], for which the values for the negative-log IC50 (pIC50) in assay [1] and in assay [3] (setting [5]) were 6.95 and 5.85, respectively. In assay [2], the IC50 came out at 14 nM.

As for `CCc1cccc2cc(O)cc(-c3c(F)cc4c(N5CCOCC(C)(O)C5)nc(OC[C@@]56CCCN5C[C@H](F)C6)nc4c3F)c12` (single isomer, unassigned) [Example 33], the pIC50 in assay [1] is 8.30; in assay [3] (setting [4]), 8.40. Moreover, the IC50 in assay [2] came to 3 nM.

In the case of `C[C@@]1(O)COCCN(c2nc(OC[C@@]34CCCN3C[C@H](F)C4)nc3c(F)c(-c4cc(O)cc5ccc(F)c(Cl)c45)c(F)cc23)C1` (single isomer, unassigned) [Example 81], the pIC50 in assay [1] was 8.30; in assay [3] (setting [4]) it was 8.10. The IC50 in assay [2] turned out to be 4 nM.

As for `CCc1c(F)ccc2cc(O)cc(-c3ccc4c(N5CCCC(O)(C(F)F)C5)nc(OC[C@@]56CCCN5C[C@H](F)C6)nc4c3F)c12` (single isomer, unassigned) [Example 23], the pIC50 in assay [1] was 8.70; in assay [3] (setting [4]), 6.80. The same compound showed an IC50 in assay [2] of 2 nM.

For the compound `C/C=C\c1c(Cl)cc2[nH]ncc2c1-c1c(F)cc2c(N3CCC[C@](O)(C(F)F)C3)nc(OC[C@@]34CCCN3C[C@H](F)C4)nc2c1F` (single isomer, unassigned) [Example 112], the pIC50 in assay [1] is 8.30; in assay [3] (setting [4]) it was 6.90. Besides, in assay [2], the IC50 came to 5 nM.

As for `C/C=C\c1c(Cl)cc2[nH]ncc2c1-c1ccc2c(N3CCC[C@](O)(CF)C3)nc(OC[C@@]34CCCN3C[C@H](F)C4)nc2c1F` (single isomer, unassigned) [Example 109], the pIC50 was 8.40 in assay [1] and 7.00 in assay [3] (setting [4]). The same compound displayed an IC50 in assay [2] of 4 nM.

Regarding `C#Cc1c(F)ccc2cc(N)cc(-c3c(F)cc4c(N5CCC[C@@](C)(O)C5)nc(OC[C@@]56CCCN5C[C@H](F)C6)nc4c3F)c12` (single isomer, unassigned) [Example 64], the negative logarithm of the IC50 (pIC50) in assay [3] (setting [4]) was 7.13.

In assay [1], `CCc1c(F)ccc2cc(O)cc(-c3ccc4c(N5CCC(C(N)=O)C5)nc(OC[C@@]56CCCN5C[C@H](F)C6)nc4c3F)c12` (stereo partly drawn) [Example 8, 1-(7-(8-Ethyl-7-fluoro-3-hydroxynaphthalen-1-yl)-8-fluoro-2-(((2R,7aS)-2-fluorotetrahydro-1H-pyrrolizin-7a(5H)-yl)methoxy)quinaquinazolin-4-yl)pyrrolidine-3-carboxamide] had a pIC50 of 7.66. In addition, the IC50 in assay [2] was 11 nM.

With `CCc1c(F)ccc2cc(O)cc(-c3c(F)cc4c(N5CCOCC(C)(O)C5)nc(OC[C@@]56CCCN5C[C@H](F)C6)nc4c3F)c12` (single isomer, unassigned) [Example 35], the negative-log IC50 (pIC50) in assay [1] was 6.91. The compound also registered an IC50 in assay [2] of 43 nM.

For the compound `CCc1c(F)ccc2cc(O)cc(-c3c(F)cc4c(N5CCCC6(CNC(=O)O6)C5)nc(OC[C@@]56CCCN5C[C@H](F)C6)nc4c3F)c12` (single isomer, unassigned) [Example 58], the values for the pIC50 in assay [1] and in assay [3] (setting [5]) were 9.00 and 8.52, respectively.

`Cc1cc2[nH]ncc2c(-c2c(F)cc3c(N4CCC[C@@](C)(O)C4)nc(OC[C@@]45CCCN4C[C@H](F)C5)nc3c2F)c1Cl` [Example 48, (3R)-1-(7-(5-Chloro-6-methyl-1H-indazol-4-yl)-6,8-difluoro-2-(((2R,7a.S)-2-fluorotetrahydro-1H-pyrrolizin-7a(5H)-yl)methoxy)quinazolin-4-y1)-3-methylpiperidin-3-ol] had a pIC50 in assay [1] of 7.66. The 50% inhibitory concentration (IC50) in assay [2] was 23 nM.

`CCc1c(F)ccc2cc(O)cc(-c3c(O)cc4c(N5CCC[C@@](C)(O)C5)nc(OC[C@@]56CCCN5C[C@H](F)C6)nc4c3F)c12` (single isomer, unassigned) [Example 28] had a pIC50 in assay [1] of 6.56. This compound showed an IC50 in assay [2] of 302 nM.

For the compound `Cc1c(Cl)cc2[nH]ncc2c1-c1c(F)cc2c(N3CCC[C@@](C)(O)C3)nc(OC[C@@]34CCCN3C[C@H](F)C4)nc2c1F` [Example 49, (3R)-1-(7-(6-Chloro-5-methyl-1H-indazol-4-yl)-6,8-difluoro-2-(((2R,7aS)-2-fluorotetrahydro-1H-pyrrolizin-7a(5H)-yl)methoxy)quinazolin-4-yl)-3-methylpiperidin-3-ol], the pIC50 in assay [1] was 8.00. Further, the 50% inhibitory concentration (IC50) in assay [2] came out at 10 nM.

In the case of `CCc1c(F)ccc2cc(N)cc(-c3c(F)cc4c(N5CCC[C@@](C)(O)C5)nc(OC[C@@]56CCCN5C[C@H](F)C6)nc4c3F)c12` (single isomer, unassigned) [Example 61], the pIC50 in assay [1] was 6.14. Also, in assay [2], the IC50 turned out to be 272 nM.

In the case of `CCc1c(F)ccc2cc(O)cc(-c3c(F)cc4c(N5CCC[C@@](C)(O)C5)nc(OC[C@@]56CCCN5C[C@H](F)C6)nc4c3F)c12` (atropisomer, axis not shown) [Example 3, (3R)-1-(7-(8-Ethyl-7-fluoro-3-hydroxynaphthalen-1-yl)-6,8-difluoro-2-(((2R,7a.S)-2-fluorotetrahydro-1H-pyrrolizin-7a(5H)-yl)methoxy)quinazolin-4-yl)-3-methylpiperidin-3-ol], the pIC50 in assay [1] is 6.90; in assay [2], 6.87.

On to `C#Cc1cccc2cc(O)cc(-c3c(F)cc4c(N5CCC[C@@](C)(O)C5)nc(OC[C@@]56CCCN5C[C@H](F)C6)nc4c3F)c12` (single isomer, unassigned) [Example 11], for which, in assay [1], the negative-log IC50 (pIC50) is 6.67. Besides, the 50% inhibitory concentration (IC50) in assay [2] worked out at 186 nM.

Consider `CCc1c(F)ccc2cc(O)cc(-c3ccc4c(N5CCCC(O)(C(F)F)C5)nc(OC[C@@]56CCCN5C[C@H](F)C6)nc4c3F)c12` (single isomer, unassigned) [Example 24], for which the negative-log IC50 (pIC50) in assay [1] is 7.15. Further, the IC50 in assay [2] is 80 nM.

On to `C#Cc1c(F)ccc2cccc(-c3c(F)cc4c(N5CCC[C@@](C)(O)C5)nc(OC[C@@]56CCCN5C[C@H](F)C6)nc4c3F)c12` (single isomer, unassigned) [Example 66], for which the pIC50 in assay [1] is 6.18. Also, in assay [2], the IC50 came to 589 nM.

Compound `C#Cc1c(F)ccc2cc(N)cc(-c3c(F)cc4c(N5CCC[C@@](C)(O)C5)nc(OC[C@@]56CCCN5C[C@H](F)C6)nc4c3F)c12` (single isomer, unassigned) [Example 63] gave a pIC50 in assay [1] of 6.65. Also, the IC50 in assay [2] was 138 nM.

Take `CCc1c(F)ccc2cc(O)cc(-c3c(F)cc4c(N5CCCC(O)(C(F)F)C5)nc(OC[C@@]56CCCN5C[C@H](F)C6)nc4c3F)c12` (single isomer, unassigned) [Example 22]: the pIC50 in assay [1] is 7.02. Besides, the concentration for half-maximal inhibition (IC50) in assay [2] came to 58 nM.

As to `CCc1c(F)ccc2cc(O)cc(-c3c(F)cc4c(N5CCCC6(CNC(=O)O6)C5)nc(OC[C@@]56CCCN5C[C@H](F)C6)nc4c3F)c12` (single isomer, unassigned) [Example 57], the pIC50 in assay [1] was 6.36. In assay [2], this compound displayed an IC50 of 87 nM.

For the compound `CCc1c(F)ccc2cc(O)cc(-c3c(F)cc4c(N5CCCC(O)(C(F)F)C5)nc(OC[C@@]56CCCN5C[C@H](F)C6)nc4c3F)c12` (single isomer, unassigned) [Example 21], in assay [1], the pIC50 was 7.40. The IC50 in assay [2] worked out at 40 nM.
